From patent US8637510B2, “Morpholinothiazoles as alpha 7 positive allosteric modulators” (Janssen Pharmaceutica NV, priority 2009, dated 2014)

What was measured:
human alpha 7-wt nAChR = target: T1, human alpha 7-wt nAChR (Homo sapiens, UniProt P36544); assay: Ca2+ flux imaging (FDSS) (Protocol B); assay type: cell-based; conditions: for EC50: potentiation of 100 μM choline, compounds 0.01 μM to 30 μM, read-out: a7-PAM-G_[33]_pEC50 pEC50 (converted); for Emax: read-out: a7-PAM-G_[33]_Eff_Curve_FI % Efficacy
T1 construct: expressed in transfected cells
T1 sequence (P36544 23-502): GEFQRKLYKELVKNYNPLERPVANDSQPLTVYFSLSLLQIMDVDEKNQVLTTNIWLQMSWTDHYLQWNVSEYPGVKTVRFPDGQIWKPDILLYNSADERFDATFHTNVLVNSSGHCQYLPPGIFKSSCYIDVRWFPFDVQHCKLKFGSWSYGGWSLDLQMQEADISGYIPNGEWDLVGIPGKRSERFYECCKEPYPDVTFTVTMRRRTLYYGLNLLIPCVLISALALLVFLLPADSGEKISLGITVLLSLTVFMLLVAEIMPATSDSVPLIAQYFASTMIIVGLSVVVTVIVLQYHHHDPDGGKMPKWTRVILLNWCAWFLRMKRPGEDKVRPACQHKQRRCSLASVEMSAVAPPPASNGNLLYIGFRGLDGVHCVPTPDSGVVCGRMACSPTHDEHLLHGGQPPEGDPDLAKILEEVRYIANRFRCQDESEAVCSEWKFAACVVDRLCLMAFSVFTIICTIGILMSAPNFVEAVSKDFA
In short: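 Fluo-4AM-loaded cells expressing human α7-wt nAChR, in HBSS with 10 mM HEPES, 5 mM CaCl2, 0.1% BSA, received compound (0.01–30 μM), typically 10 min before 100 μM choline, with calcium flux read in real time. Potentiation is relative to choline alone (100%); EC50 from sigmoidal curves.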

[1] = target: T2, human alpha 7-wt nAChR-expressing GH4C1 cells (Homo sapiens, UniProt P36544); assay: Patch-clamp current recording (whole-cell voltage-clamp, PAM type classification); assay type: cell-based; parameters: key: Type 0 compounds minimally change the effect size of the current elicited by 1 mM choline.; Type 1 compounds enhance the effect size of the current elicited by 1 mM choline but minimally alter the kinetics of the receptor.; Type 2 compounds enhance the effect size of the current elicited by 1 mM choline while reducing the rate and/or the extent of desensitization.; Type 3 compounds enhance the effect size of the current elicited by 1 mM choline. When tested at higher concentrations up to 10 μM they completely inhibit desensitization; Type 4 compounds allow for an initial desensitization of the receptor followed by a re-opening of the receptor during agonist application; conditions: 1 mM choline
T2 construct: expressed in transfected cells
T2 sequence (P36544 23-502): as above
Method: The compounds of the present invention are classified as type 1-4, based on qualitative kinetic properties, as determined by whole-cell voltage-clamp recordings. This classification is based on the effect of an alpha 7 PAM compound, as described hereinbefore, on the signal elicited by an agonist application. In particular, said agonist is choline at a concentration of 1 mM. In a preferred experimental setting, said alpha 7 PAM compound and choline are simultaneously applied to the cell, as described hereinafter. Desensitization is defined as the closure of the receptor upon activation during the application of the agonist in whole-cell voltage-clamp electrophysiology measurements seen as the reduction of the […] current after initial activation by the agonist.
The definition of the PAM types 1-4 is described hereinafter: • Type 0 compounds minimally change the effect size of the current elicited by 1 mM choline. • Type 1 compounds enhance the effect size of the current elicited by 1 mM choline but minimally alter the kinetics of the receptor. In particular, the rate and the extent of desensitization and of deactivation of the receptor elicited by the agonist is not affected. The compound-modulated response to 1 mM choline, therefore, is close to a linear scaling of the 1 mM choline response in absence of the alpha 7 PAM compound. • Type 2 compounds enhance the effect size of the current elicited by 1 mM choline while reducing the rate and/or the extent of desensitization. Deactivation of the receptor is generally unaffected. • Type 3 compounds enhance the effect size of the current elicited by 1 mM choline. […] Deactivation of the receptor may be slowed down • Type 4 compounds allow for an initial desensitization of the receptor followed by a re-opening of the receptor during agonist application. At low-potency concentrations of the alpha 7 PAM compound, the agonist-induced activation, which is followed by desensitization, can still be separated from the compound-induced re-opening as an initial inward current-maximum. At higher potency concentrations of the alpha 7 PAM compound, the re-opening occurs faster than the closure due to desensitization so that the initial current-maximum disappears.
A compound was considered to have interesting PAM-like activity when the potentiation of the peak current was at least 200% compared to the control choline response (=100%). Such compounds are classified as belonging to a particular PAM type in the Experimental Part. Compounds not meeting the condition are not classified as belonging to a particular PAM-type.
The compounds also have a potentiating effect on the response to choline when measured by whole-cell patch clamp electrophysiology in GH4C1 cells stably over-expressing the human wild-type alpha 7 receptor.
Patch-clamp recording from mammalian cells has provided a powerful means of assessing the function of membrane-bound proteins thought to be subunits of ligand-gated ion channels. Activation of such proteins by endogenous or exogenous ligands cause opening of a pore associated with the receptor through which ions flow down their electrochemical gradient. In the case of the human alpha 7-wt nAChR-expressing GH4C1 recombinant cell line the preferential permeability to calcium of this receptor means that calcium flows into the cell upon activation by ACh, choline and other nicotinic ligands giving rise to a calcium current. Since this receptor rapidly desensitizes in the presence of agonist it is important that an application system is used which is capable of very rapid switching of solutions (<100 ms) to prevent partial or full desensitisation of receptor responses coincident with the time of agonist application. Consequently, a second convenient technique to assess the enhancement of nicotinic efficacy is a patch-clamp recording from human alpha 7-wt nAChR-expressing GH4C1 cells coupled with a rapid-application system. […]

[2] = efficacy of 100 μM choline defined as 100% in the absence of a PAM

EC50 (human alpha 7-wt nAChR) [nM] | Emax (human alpha 7-wt nAChR; [2]) [%] | a7-PAM-G_[33]_Eff_Curve_FI % Efficacy (human alpha 7-wt nAChR; [2]) [%] | Structure (SMILES) | PAM_Type PAM type [1]
67.6 | – | – | Cc1cc(-c2sc(N3C[C@@H](C)O[C@@H](C)C3)nc2CNC(=O)C2CCC2)cc(C)n1 [Compound 2, N-[[2-[(2R,6S)-2,6-dimethyl-4-morpholinyl]-5-(2,6-dimethyl-4-pyridinyl)-4-thiazolyl]methyl]-cyclobutanecarboxamide] | 2
316 | 723 | – | Cc1cc(-c2sc(N3C[C@@H](C)O[C@@H](C)C3)nc2CNC(=O)c2cccc(F)c2)cc(C)n1 [Compound 7, N-[[2-[(2R,6S)-2,6-dimethyl-4-morpholinyl]-5-(2,6-dimethyl-4-pyridinyl)-4-thiazolyl]methyl]-3-fluoro-benzamide] | 2
21.4 | – | 735 | Cc1cc(-c2sc(N3CC(C)OC(C(F)(F)F)C3)nc2CNC(=O)CC2CC2)cc(C)n1 (racemic) [Compound 202, N-[[5-(2,6-dimethyl-4-pyridinyl)-2-[2-methyl-6-(trifluoromethyl)-4-morpholinyl]-4-thiazolyl]methyl]-cyclopropaneacetamide] | 2
550 | 595 | – | Cc1cc(-c2sc(N3C[C@@H](C)O[C@@H](C)C3)nc2CNC(=O)c2cccc(C#N)c2)cc(C)n1 [Compound 12, 3-cyano-N-[[2-[(2R,6S)-2,6-dimethyl-4-morpholinyl]-5-(2,6-dimethyl-4-pyridinyl)-4-thiazolyl]methyl]-benzamide] | 2
661 | – | – | Cc1cc(-c2sc(N3C[C@@H](C)O[C@@H](C)C3)nc2CNC(=O)C2CC2)cc(C)n1 [Compound 48, N-[[2-[(2R,6S)-2,6-dimethyl-4-morpholinyl]-5-(2,6-dimethyl-4-pyridinyl)-4-thiazolyl]methyl]-cyclopropanecarboxamide] | 2
148 | – | – | Cc1cc(F)ccc1C(=O)NCc1nc(N2C[C@@H](C)O[C@@H](C)C2)sc1-c1ccnc(C(F)(F)F)c1 [Compound 198, N-[[2-[(2R,6S)-2,6-dimethyl-4-morpholinyl]-5-[2-(trifluoromethyl)-4-pyridinyl]-4-thiazolyl]methyl]-4-fluoro-2-methyl-benzamide] | 1
83.2 | 630 | – | Cc1cc(-c2sc(N3C[C@@H](C)O[C@@H](C)C3)nc2CNC(=O)c2ccc(Cl)cc2Cl)cc(C)n1 [Compound 10, 2,4-dichloro-N-[[2-[(2R,6S)-2,6-dimethyl-4-morpholinyl]-5-(2,6-dimethyl-4-pyridinyl)-4-thiazolyl]methyl]-benzamide] | 2
100 | 378 | – | Cc1cc(-c2sc(N3C[C@@H](C)O[C@@H](C)C3)nc2CNC(=O)c2ccc(Cl)cc2)cc(C)n1 [Compound 19, 4-chloro-N-[[2-[(2R,6S)-2,6-dimethyl-4-morpholinyl]-5-(2,6-dimethyl-4-pyridinyl)-4-thiazolyl]methyl]-benzamide] | 2
240 | 566 | – | Cc1cc(-c2sc(N3C[C@@H](C)O[C@@H](C)C3)nc2CNC(=O)c2cccc(Cl)c2)cc(C)n1 [Compound 9, 3-chloro-N-[[2-[(2R,6S)-2,6-dimethyl-4-morpholinyl]-5-(2,6-dimethyl-4-pyridinyl)-4-thiazolyl]methyl]-benzamide] | 2
457 | 452 | – | Cc1cc(-c2sc(N3C[C@@H](C)O[C@@H](C)C3)nc2CNC(=O)c2ccc(F)cc2)cc(C)n1 [Compound 8, N-[[2-[(2R,6S)-2,6-dimethyl-4-morpholinyl]-5-(2,6-dimethyl-4-pyridinyl)-4-thiazolyl]methyl]-4-fluoro-benzamide] | 2
135 | 568 | – | Cc1cc(-c2sc(N3C[C@@H](C)O[C@@H](C)C3)nc2CNC(=O)c2ccccc2Cl)cc(C)n1 [Compound 5, 2-chloro-N-[[2-[(2R,6S)-2,6-dimethyl-4-morpholinyl]-5-(2,6-dimethyl-4-pyridinyl)-4-thiazolyl]methyl]-benzamide] | 2
20.9 | – | – | Cc1cc(-c2sc(N3CCOC(C(F)(F)F)C3)nc2CNC(=O)c2ccc(F)cc2C)cc(C)n1 (stereo not shown) [Compound 193, N-[[5-(2,6-dimethyl-4-pyridinyl)-2-[2-(trifluoromethyl)-4-morpholinyl]-4-thiazolyl]methyl]-4-fluoro-2-methyl-benzamide] | 4
1000 | 499 | – | Cc1cc(-c2sc(N3C[C@@H](C)O[C@@H](C)C3)nc2CNC(=O)c2cccnc2C)cc(C)n1 [Compound 17, N-[[2-[(2R,6S)-2,6-dimethyl-4-morpholinyl]-5-(2,6-dimethyl-4-pyridinyl)-4-thiazolyl]methyl]-2-methyl-3-pyridinecarboxamide] | 2
288 | 593 | – | Cc1cc(-c2sc(N3C[C@@H](C)O[C@@H](C)C3)nc2CNC(=O)c2ccc(F)cc2F)cc(C)n1 [Compound 13, N-[[2-[(2R,6S)-2,6-dimethyl-4-morpholinyl]-5-(2,6-dimethyl-4-pyridinyl)-4-thiazolyl]methyl]-2,4-difluoro-benzamide] | 2
97.7 | 707 | – | Cc1cc(-c2sc(N3C[C@@H](C)O[C@@H](C)C3)nc2CNC(=O)C(C)C2CC2)cc(C)n1 (stereo partly drawn) [Compound 179, N-[[2-[(2R,6S)-2,6-dimethyl-4-morpholinyl]-5-(2,6-dimethyl-4-pyridinyl)-4-thiazolyl]methyl]-α-methyl-cyclopropaneacetamide] | 2
2140 | – | – | Cc1cc(-c2sc(N3C[C@@H](C)O[C@@H](C)C3)nc2CNC(=O)c2ccc(S(N)(=O)=O)cc2)cc(C)n1 [Compound 144, 4-(aminosulfonyl)-N-[[2-[(2R,6S)-2,6-dimethyl-4-morpholinyl]-5-(2,6-dimethyl-4-pyridinyl)-4-thiazolyl]methyl]-benzamide] | 2
295 | 384 | – | COc1cc(-c2sc(N3C[C@@H](C)O[C@@H](C)C3)nc2CNC(=O)c2conc2C)cc(C)n1 [Compound 81, N-[[2-[(2R,6S)-2,6-dimethyl-4-morpholinyl]-5-(2-methoxy-6-methyl-4-pyridinyl)-4-thiazolyl]methyl]-3-methyl-4-isoxazolecarboxamide] | 2
813 | 703 | – | Cc1cc(-c2sc(N3C[C@@H](C)O[C@@H](C)C3)nc2CNC(=O)c2ccc(OC(F)(F)F)cc2)cc(C)n1 [Compound 11, N-[[2-[(2R,6S)-2,6-dimethyl-4-morpholinyl]-5-(2,6-dimethyl-4-pyridinyl)-4-thiazolyl]methyl]-4-(trifluoromethoxy)-benzamide] | 2
